Like-named read-outs stand apart in the source and are kept apart here. *1 amine or outer side, *2 acyl side, *3 side chain or, on linkers, in order; H or OH if unused. Where a SMILES comes first, the peptide text is derived from it. Where no end group is shown, it is not given here. Side-chain parts run from the residue outwards. [ ]: non-standard residue; d: D form. The star is where a group is joined. Undecanoyl(11-OPh(4-COOH)) = O=C(O)c1ccc(OCCCCCCCCCCC(=O)*)cc1; Decanoyl(10-O(3-COOH-Ph)) = O=C(O)c1cccc(OCCCCCCCCCC(=O)*)c1; γGlu = O=C(O)[C@H](CCC(=O)[*:2])N[*:1]; AEEA = NCCOCCOCC(=O)O; Aib = CC(C)(N)C(=O)O
How the values were obtained:
[1] = target: T1, human GLP-1 receptor (Homo sapiens, UniProt P43220); test: In vitro potency, CRE luciferase reporter gene assay in BHK cells expressing the human GLP-1 receptor; format: cell-based; conditions: average of duplicates;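 also: firefly luciferase luminescence read after 3 h incubation at 37 °C, compounds tested in an eight-point series from 0.01 pM to 100 nM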
T1 construct: expressed in transfected cells; host or cells: membranes from BHK cells, parent line BHKTS13, clone FCW467-12A
T1 sequence (P43220 24-463): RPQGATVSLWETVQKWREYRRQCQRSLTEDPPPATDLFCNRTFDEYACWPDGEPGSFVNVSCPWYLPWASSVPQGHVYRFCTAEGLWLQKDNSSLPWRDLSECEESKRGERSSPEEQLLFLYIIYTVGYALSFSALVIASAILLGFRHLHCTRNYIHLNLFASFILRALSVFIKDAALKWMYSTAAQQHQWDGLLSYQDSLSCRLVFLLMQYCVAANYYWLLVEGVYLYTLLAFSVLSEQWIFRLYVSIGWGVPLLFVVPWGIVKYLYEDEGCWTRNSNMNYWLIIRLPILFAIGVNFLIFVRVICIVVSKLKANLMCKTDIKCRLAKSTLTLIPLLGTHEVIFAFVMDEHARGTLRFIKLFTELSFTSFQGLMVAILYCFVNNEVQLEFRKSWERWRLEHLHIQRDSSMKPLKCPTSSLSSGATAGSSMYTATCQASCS
Method: The in vitro potency is the measure of human GLP-1 receptor activation in a whole cell assay.
In vitro potency was determined by measuring the response of the human GLP-1 receptor in a reporter gene assay. The assay was performed in a stably transfected BHK cell line that expresses the human GLP-1 receptor and contains the DNA for the cAMP response element (CRE) coupled to a promoter and the gene for firefly luciferase (CRE luciferase). When the human GLP-1 receptor is activated it results in the production of cAMP, which in turn results in the luciferase protein being expressed. When assay incubation is completed the luciferase substrate (luciferin) is added and the enzyme converts luciferin to oxyluciferin to produce bioluminescence. The luminescence is measured as the readout for the assay.
An increase of the in vitro potency, EC50 value, in the presence of serum albumin would indicate an affinity to serum albumin and represents a method to predict a protracted pharmacokinetic profile of the test substance in animal models.
The cells were cultured at 5% CO2 in Cell Culture Medium. They were aliquoted and stored in liquid nitrogen. Before each assay an aliquot is taken up and washed twice in PBS before being suspended at the desired concentration in the assay specific buffer. For 96-well plates the suspension was made to give a final concentration of 5×10^3 cells/well.
Assay Medium consisted of DMEM w/o phenol red, 10 mM Hepes and 1× Glutamax. The 1% Assay Buffer consisted of 2% ovalbumin, 0.2% Pluronic F-68 and 2% HSA in Assay Medium. The 0% Assay Buffer consisted of 2% ovalbumin and 0.2% Pluronic F-68 in Assay Medium.
1) Cell stocks were thawed in a 37° C. water bath.
2) Cells were washed three times in PBS.
3) The cells were counted and adjusted to 5×10^3 cells/50 μl (1×10^5 cells/ml) in Assay Medium. A 50 μl aliquot of cells was transferred to each well in the assay plate.
4) Stocks of the test compounds and reference compounds were diluted to a concentration of 0.2 pM in 0% Assay Buffer for the 0% HSA CRE luciferase assay and 1% Assay Buffer for the 1% HSA CRE luciferase assay. […] Compounds were tested at the following final concentrations: 1×10^−7 M, 1×10^−8 M; 1×10^−9 M, 1×10^−10 M, 1×10^−11 M, 1×10^−12 M, 1×10^−13 M, and 1×10^−14 M. 6) The assay plate was incubated for 3 h in a 5% CO2 incubator at 37° C. […] 8) A 100 μl aliquot of steadylite plus reagent was added to each well of the assay plate (reagent was light sensitive). 9) Each assay plate was covered with aluminum foil to protect it from light and shaken for 30 min at room temperature. 10) Each assay plate was read in a Packard TopCount NXT instrument. Calculations and Results
The data from the TopCount instrument were transferred to GraphPad Prism software. The software performs a non-linear regression (log(agonist) vs response).
A minimum of two replicates was measured for each sample on separate assay plates. The reported values are averages of the duplicates. For some examples more than one assay was run and in this case the data reported are the averages of the averaged duplicates.

[2] = target: T2, human GLP-1 receptor (human, UniProt P43220); test: displacement of [125I]-GLP-1-(7-36)NH2 from membranes with human GLP-1 receptor, SPA, high HSA (2.0%)
Method: Each derivative is added in a series of concentrations to isolated membranes containing the human GLP-1 receptor and displacement of the labelled ligand is monitored. The receptor binding is reported as the concentration at which half of the labelled ligand is displaced from the receptor, the $IC50$ value.
For the receptor binding assay in the presence of low HSA (0.001%) 50 μl of the assay buffer was added to each well of an assay plate. […] For the receptor binding assay in the presence of high HSA (2.0%) 50 μl of the 8% albumin stock was added to each well of an assay plate. […] Cell membrane aliquots were thawed and diluted to their working concentration. Fifty μl were added to each well in the assay plate. […] WGA SPA beads were suspended in assay buffer at 20 mg/ml. The suspension was diluted to 10 mg/ml in assay buffer just prior to addition to the assay plate. Fifty μl were added to each well in the assay plate. […] A 25 μl aliquot was reserved for measuring total counts/well. […] The assay plate was incubated for 2 h at 30° C. […] The assay plate was centrifuged for 10 min. […] The assay plate was read in a Packard TopCount NXT instrument.

[3] = target: T2, human GLP-1 receptor
Target sequence in this assay (P43220 24-463): as above

[4] = EC50/pM (1% HSA), 1% HSA final assay concentration

In the case of `CC[C@H](C)[C@H](NC(=O)[C@H](Cc1ccccc1)NC(=O)[C@H](CCC(=O)O)NC(=O)[C@H](CCCNC(=N)N)NC(=O)[C@H](C)NC(=O)[C@H](C)NC(=O)[C@H](CCC(N)=O)NC(=O)[C@H](CCC(=O)O)NC(=O)[C@H](CCC(=O)O)NC(=O)[C@H](CC(C)C)NC(=O)[C@H](Cc1ccc(O)cc1)NC(=O)[C@H](CO)NC(=O)[C@H](CO)NC(=O)[C@@H](NC(=O)[C@H](CC(=O)O)NC(=O)[C@H](CO)NC(=O)[C@@H](NC(=O)[C@H](Cc1ccccc1)NC(=O)[C@@H](NC(=O)CNC(=O)[C@H](CCC(=O)O)NC(=O)C(C)(C)NC(=O)[C@@H](N)Cc1c[nH]cn1)[C@@H](C)O)[C@@H](C)O)C(C)C)C(=O)N[C@@H](CCC(=O)O)C(=O)N[C@@H](Cc1c[nH]c2ccccc12)C(=O)N[C@@H](CC(C)C)C(=O)N[C@H](C(=O)N[C@@H](CCCNC(=N)N)C(=O)NCC(=O)N[C@@H](CCCCNC(=O)COCCOCCNC(=O)COCCOCCNC(=O)CC[C@H](NC(=O)CCCCCCCCCOc1cccc(C(=O)O)c1)C(=O)O)C(=O)N[C@@H](CCCCNC(=O)COCCOCCNC(=O)COCCOCCNC(=O)CC[C@H](NC(=O)CCCCCCCCCOc1cccc(C(=O)O)c1)C(=O)O)C(=O)O)C(C)C` [Example 27, N{Epsilon-36}-[2-[2-[2-[[2-[2-[2-[[(4S)-4-carboxy-4-[10-(3-carboxyphenoxy)decanoylamino]butanoyl]amino]ethoxy]ethoxy]acetyl]amino]ethoxy]ethoxy]acetyl], N{Epsilon-37}-[2-[2-[2-[[2-[2-[2-[[(4S)-4-carboxy-4-[10-(3-carboxyphenoxy)decanoylamino]butanoyl]amino]ethoxy]ethoxy]acetyl]amino]ethoxy]ethoxy]acetyl]-[Aib8,Glu22,Arg26,Glu30,Arg34,Lys36,Lys37]-GLP-1-(7-37)-peptide], the EC50 ([1]; EC50/pM (0% HSA), 0% HSA) is reported as 13 pM and the EC50 [1, 4] is reported as 105 pM.

With `CC[C@H](C)[C@H](NC(=O)[C@H](Cc1ccccc1)NC(=O)[C@H](CCC(=O)O)NC(=O)[C@H](CCCNC(=N)N)NC(=O)[C@H](C)NC(=O)[C@H](C)NC(=O)[C@H](CCC(N)=O)NC(=O)[C@H](CCC(=O)O)NC(=O)[C@H](CCC(=O)O)NC(=O)[C@H](CC(C)C)NC(=O)[C@H](Cc1ccc(O)cc1)NC(=O)[C@H](CO)NC(=O)[C@H](CO)NC(=O)[C@@H](NC(=O)[C@H](CC(=O)O)NC(=O)[C@H](CO)NC(=O)[C@@H](NC(=O)[C@H](Cc1ccccc1)NC(=O)[C@@H](NC(=O)CNC(=O)[C@H](CCC(=O)O)NC(=O)C(C)(C)NC(=O)[C@@H](N)Cc1c[nH]cn1)[C@@H](C)O)[C@@H](C)O)C(C)C)C(=O)N[C@@H](C)C(=O)N[C@@H](Cc1c[nH]c2ccccc12)C(=O)N[C@@H](CC(C)C)C(=O)N[C@H](C(=O)N[C@@H](CCCNC(=N)N)C(=O)NCC(=O)N[C@@H](CCCCNC(=O)COCCOCCNC(=O)COCCOCCNC(=O)COCCOCCNC(=O)COCCOCCNC(=O)CC[C@H](NC(=O)CCCCCCCCCOc1cccc(C(=O)O)c1)C(=O)O)C(=O)N[C@@H](CCCCNC(=O)COCCOCCNC(=O)COCCOCCNC(=O)COCCOCCNC(=O)COCCOCCNC(=O)CC[C@H](NC(=O)CCCCCCCCCOc1cccc(C(=O)O)c1)C(=O)O)C(=O)O)C(C)C` [Example 22] the EC50 ([1]; EC50/pM (0% HSA), 0% HSA) was 1.8 pM and the EC50 [1, 4] was 7.7 pM.

`CC[C@H](C)[C@H](NC(=O)[C@H](Cc1ccccc1)NC(=O)[C@H](CCC(=O)O)NC(=O)[C@H](CCCNC(=N)N)NC(=O)[C@H](C)NC(=O)[C@H](C)NC(=O)[C@H](CCC(N)=O)NC(=O)[C@H](CCC(=O)O)NC(=O)[C@H](CCC(=O)O)NC(=O)[C@H](CC(C)C)NC(=O)[C@H](Cc1ccc(O)cc1)NC(=O)[C@H](CO)NC(=O)[C@H](CO)NC(=O)[C@@H](NC(=O)[C@H](CC(=O)O)NC(=O)[C@H](CO)NC(=O)[C@@H](NC(=O)[C@H](Cc1ccccc1)NC(=O)[C@@H](NC(=O)CNC(=O)[C@H](CCC(=O)O)NC(=O)C(C)(C)NC(=O)[C@@H](N)Cc1c[nH]cn1)[C@@H](C)O)[C@@H](C)O)C(C)C)C(=O)N[C@@H](CCC(=O)O)C(=O)N[C@@H](Cc1c[nH]c2ccccc12)C(=O)N[C@@H](CC(C)C)C(=O)N[C@H](C(=O)N[C@@H](CCCNC(=N)N)C(=O)NCC(=O)N[C@@H](CCCCNC(=O)COCCOCCNC(=O)COCCOCCNC(=O)COCCOCCNC(=O)COCCOCCNC(=O)CC[C@H](NC(=O)CCCCCCCCCOc1cccc(C(=O)O)c1)C(=O)O)C(=O)N[C@@H](CCCCNC(=O)COCCOCCNC(=O)COCCOCCNC(=O)COCCOCCNC(=O)COCCOCCNC(=O)CC[C@H](NC(=O)CCCCCCCCCOc1cccc(C(=O)O)c1)C(=O)O)C(=O)O)C(C)C` [Example 28] was tested, and the EC50 ([1]; EC50/pM (0% HSA), 0% HSA) was 12 pM and the EC50 [1, 4] was 25 pM.

`CC[C@H](C)[C@H](NC(=O)[C@H](Cc1ccccc1)NC(=O)[C@H](CCC(=O)O)NC(=O)[C@H](CCCNC(=N)N)NC(=O)[C@H](C)NC(=O)[C@H](C)NC(=O)[C@H](CCC(N)=O)NC(=O)[C@H](CCC(=O)O)NC(=O)[C@H](CCC(=O)O)NC(=O)[C@H](CC(C)C)NC(=O)[C@H](Cc1ccc(O)cc1)NC(=O)[C@H](CO)NC(=O)[C@H](CO)NC(=O)[C@@H](NC(=O)[C@H](CC(=O)O)NC(=O)[C@H](CO)NC(=O)[C@@H](NC(=O)[C@H](Cc1ccccc1)NC(=O)[C@@H](NC(=O)CNC(=O)[C@H](CCC(=O)O)NC(=O)CNC(=O)[C@@H](N)Cc1c[nH]cn1)[C@@H](C)O)[C@@H](C)O)C(C)C)C(=O)N[C@@H](C)C(=O)N[C@@H](Cc1c[nH]c2ccccc12)C(=O)N[C@@H](CC(C)C)C(=O)N[C@H](C(=O)N[C@@H](CCCNC(=N)N)C(=O)NCC(=O)N[C@@H](CCCCNC(=O)COCCOCCNC(=O)COCCOCCNC(=O)CC[C@H](NC(=O)CCCCCCCCCCOc1ccc(C(=O)O)cc1)C(=O)O)C(=O)N[C@@H](CCCCNC(=O)COCCOCCNC(=O)COCCOCCNC(=O)CC[C@H](NC(=O)CCCCCCCCCCOc1ccc(C(=O)O)cc1)C(=O)O)C(=O)O)C(C)C` [Example 17, N{Epsilon-36}-[2-[2-[2-[[2-[2-[2-[[(4S)-4-carboxy-4-[11-(4-carboxyphenoxy)undecanoylamino]butanoyl]amino]ethoxy]ethoxy]acetyl]amino]ethoxy]ethoxy]acetyl], N{Epsilon-37}-[2-[2-[2-[[2-[2-[2-[[(4S)-4-carboxy-4-[11-(4-carboxyphenoxy)undecanoylamino]butanoyl]amino]ethoxy]ethoxy]acetyl]amino]ethoxy]ethoxy]acetyl]-[Gly8,Glu22,Arg26,Arg34,Lys36,Lys37]-GLP-1-(7-37)-peptide] (H-HGEGTFTSDVSSYLEEQAAREFIAWLVRGK([AEEA-AEEA-γGlu-Undecanoyl(11-OPh(4-COOH))])K([AEEA-AEEA-γGlu-Undecanoyl(11-OPh(4-COOH))])-OH; N-terminus and C-terminus assumed) showed an EC50 ([1]; EC50/pM (0% HSA), 0% HSA) of 14 pM and an EC50 [1, 4] of 199 pM.

Molecule `CC[C@H](C)[C@H](NC(=O)[C@H](Cc1ccccc1)NC(=O)[C@H](CCC(=O)O)NC(=O)[C@H](CCCNC(=N)N)NC(=O)[C@H](C)NC(=O)[C@H](C)NC(=O)[C@H](CCC(N)=O)NC(=O)[C@H](CCC(=O)O)NC(=O)[C@H](CCC(=O)O)NC(=O)[C@H](CC(C)C)NC(=O)[C@H](Cc1ccc(O)cc1)NC(=O)[C@H](CO)NC(=O)[C@H](CO)NC(=O)[C@@H](NC(=O)[C@H](CC(=O)O)NC(=O)[C@H](CO)NC(=O)[C@@H](NC(=O)[C@H](Cc1ccccc1)NC(=O)[C@@H](NC(=O)CNC(=O)[C@H](CCC(=O)O)NC(=O)C(C)(C)NC(=O)[C@@H](N)Cc1c[nH]cn1)[C@@H](C)O)[C@@H](C)O)C(C)C)C(=O)N[C@@H](C)C(=O)N[C@@H](Cc1c[nH]c2ccccc12)C(=O)N[C@@H](CC(C)C)C(=O)N[C@H](C(=O)N[C@@H](CCCNC(=N)N)C(=O)NCC(=O)N[C@@H](CCCCNC(=O)COCCOCCNC(=O)COCCOCCNC(=O)CC[C@H](NC(=O)CC[C@H](NC(=O)CCCCCCCCCCOc1ccc(C(=O)O)cc1)C(=O)O)C(=O)O)C(=O)N[C@@H](CCCCNC(=O)COCCOCCNC(=O)COCCOCCNC(=O)CC[C@H](NC(=O)CC[C@H](NC(=O)CCCCCCCCCCOc1ccc(C(=O)O)cc1)C(=O)O)C(=O)O)C(=O)O)C(C)C` [Example 18] has an EC50 [1, 4] of 29 pM.

`CC[C@H](C)[C@H](NC(=O)[C@H](Cc1ccccc1)NC(=O)[C@H](CCC(=O)O)NC(=O)[C@H](CCCNC(=N)N)NC(=O)[C@H](C)NC(=O)[C@H](C)NC(=O)[C@H](CCC(N)=O)NC(=O)[C@H](CCC(=O)O)NC(=O)[C@H](CCC(=O)O)NC(=O)[C@H](CC(C)C)NC(=O)[C@H](Cc1ccc(O)cc1)NC(=O)[C@H](CO)NC(=O)[C@H](CO)NC(=O)[C@@H](NC(=O)[C@H](CC(=O)O)NC(=O)[C@H](CO)NC(=O)[C@@H](NC(=O)[C@H](Cc1ccccc1)NC(=O)[C@@H](NC(=O)CNC(=O)[C@H](CCC(=O)O)NC(=O)C(C)(C)NC(=O)[C@@H](N)Cc1c[nH]cn1)[C@@H](C)O)[C@@H](C)O)C(C)C)C(=O)N[C@@H](C)C(=O)N[C@@H](Cc1c[nH]c2ccccc12)C(=O)N[C@@H](CC(C)C)C(=O)N[C@H](C(=O)N[C@@H](CCCNC(=N)N)C(=O)NCC(=O)N[C@@H](CCCCNC(=O)COCCOCCNC(=O)COCCOCCNC(=O)CC[C@H](NC(=O)CC[C@H](NC(=O)CCCCCCCCCCCCC(=O)O)C(=O)O)C(=O)O)C(=O)N[C@@H](CCCCNC(=O)COCCOCCNC(=O)COCCOCCNC(=O)CC[C@H](NC(=O)CC[C@H](NC(=O)CCCCCCCCCCCCC(=O)O)C(=O)O)C(=O)O)C(=O)O)C(C)C` [Example 21] showed an EC50 ([1]; 0% HSA, read-out: EC50/pM (0% HSA)) of 5.6 pM and an EC50 [1, 4] of 13 pM.

H[Aib]EGTFTSDVSSYLEEQAAREFIAWLVRGK([AEEA-AEEA-AEEA-AEEA-γGlu-Decanoyl(10-O(3-COOH-Ph))])K([AEEA-AEEA-AEEA-AEEA-γGlu-Decanoyl(10-O(3-COOH-Ph))]) [GLP-1 derivative of Example 22] showed an IC50 [2] of 45 nM, an EC50/pM (0% HSA) [3] of 1.8 pM and an EC50/pM (1% HSA) [3] of 7.7 pM.

Work on H[Aib]EGTFTSDVSSYLEEQAAREFIAWLVRGK([AEEA-AEEA-γGlu-γGlu-Undecanoyl(11-OPh(4-COOH))])K([AEEA-AEEA-γGlu-γGlu-Undecanoyl(11-OPh(4-COOH))]) [GLP-1 derivative of Example 18] yielded an EC50/pM (0% HSA) [3] of 0.8 pM and an EC50/pM (1% HSA) [3] of 29 pM.

— US10689429B2, “Double-acylated GLP-1 compounds” (Novo Nordisk A/S, priority 2014, dated 2020)
